# According to paper PMC8659069, “Optimization of 4-Anilinoquinolines as Dengue Virus Inhibitors” (Molecules, 2021):
# Like-named read-outs stand apart in the source and are kept apart here.
# Tests used:
# DENV = test system: DENV; set-up: method as in PMID 28240606, PMID 22448770, PMID 26039671, PMID 19223625, PMID 32631507; conditions: serotype 2; erlotinib in Huh7 (Figure 2); ref [14],[29],[30],[31],[32],[33]; read-out: DENV EC50 (previously reported); cited from earlier work
# DENV2 = assay: microbe, parasite or virus in culture; type: cell-based, dengue virus (DENV2, New Guinea C strain); conditions: for EC50: read-out: DENV Inhibition EC50; for EC90: read-out: DENV Inhibition EC90
# VEEV (TC-83) = assay: microbe, parasite or virus in culture; type: cell-based, Venezuelan Equine Encephalitis virus; conditions: for EC50: read-out: VEEV Inhibition EC50; for EC90: read-out: VEEV Inhibition EC90
# in vitro [1] = conditions: human
# in vitro [2] = conditions: human; remark: listed apart in the source
# in vitro [3] = conditions: African green monkey
# [4] = Dengue virus, DENV2, Huh-7, 48 h
# [5] = Venezuelan equine encephalitis virus, U-87 MG, 18 h
Structure (SMILES),EC50 (DENV2; [4]) [µM],CC50 (in vitro [1]) [µM],further results
CC(C)(C)Oc1cccc2nc(N)nc(N)c12 [Compound 1],–,–,EC50 (DENV): 0.0028 µM
Clc1ccc(-c2ccc(-c3nc(NCc4cccnc4)nc4ccccc34)s2)cc1 [Compound 2],–,–,EC50 (DENV): 0.07 µM
COc1cc(Nc2c(C#N)cnc3ccc(I)cc23)cc(OC)c1OC [Compound 3],–,–,EC50 (DENV): 0.079 µM
COc1cccc(Nc2ccnc3ccc(C(F)(F)F)cc23)c1 [Compound 4],0.82,> 10,EC90 (DENV2; [4]): 1.5 µM; EC50 (VEEV (TC-83); [5]): > 10 µM; EC90 (VEEV (TC-83); [5]): > 10 µM; CC50 (in vitro [2]): > 10 µM; CC50 (in vitro [3]): > 10 µM
Oc1cccc(Nc2ccnc3ccc(C(F)(F)F)cc23)c1 [Compound 5],2.7,> 10,–
O=[N+]([O-])c1cccc(Nc2ccnc3ccc(C(F)(F)F)cc23)c1 [Compound 6],> 10,> 10,–
Nc1cccc(Nc2ccnc3ccc(C(F)(F)F)cc23)c1 [Compound 7],5.9,> 10,–
CNc1cccc(Nc2ccnc3ccc(C(F)(F)F)cc23)c1 [Compound 8],8.9,> 10,–
CN(C)c1cccc(Nc2ccnc3ccc(C(F)(F)F)cc23)c1 [Compound 9],2.3,> 10,–
OCc1cccc(Nc2ccnc3ccc(C(F)(F)F)cc23)c1 [Compound 10],6.6,> 10,–
COc1cccc(Nc2ccnc3ccc(Br)cc23)c1 [Compound 11],0.84,> 10,–
"Oc1cccc(Nc2ccnc3ccc(Br)cc23)c1 [Compound 12, 3-((6-bromoquinolin-4-yl)amino)phenol]",0.63,> 10,EC90 (DENV2; [4]): 3.2 µM; EC50 (VEEV (TC-83); [5]): 9.9 µM; EC90 (VEEV (TC-83); [5]): > 10 µM; melting point: > 300 °C; CC50 (in vitro [2]): > 10 µM; CC50 (in vitro [3]): > 10 µM
COc1cccc(Nc2ccnc3ccccc23)c1 [Compound 13],2.5,> 10,–
Oc1cccc(Nc2ccnc3ccccc23)c1 [Compound 14],> 10,> 10,–
COc1cccc(Nc2ccnc3ccc(OC)cc23)c1 [Compound 15],4.4,> 10,–
COc1ccc2nccc(Nc3cccc(O)c3)c2c1 [Compound 16],> 10,> 10,–
COc1cccc(Nc2ccnc3ccc(S(C)(=O)=O)cc23)c1 [Compound 17],> 10,> 10,–
CS(=O)(=O)c1ccc2nccc(Nc3cccc(O)c3)c2c1 [Compound 18],> 10,> 10,–
O=[N+]([O-])c1cccc(Nc2ccnc3ccc(Br)cc23)c1 [Compound 19],> 10,> 10,–

Structure (SMILES),EC50 (DENV2; [4]) [µM],CC50 (in vitro [1]) [µM],further results
Nc1cccc(Nc2ccnc3ccc(Br)cc23)c1 [Compound 20],> 10,> 10,–
"CNc1cccc(Nc2ccnc3ccc(Br)cc23)c1 [Compound 21, N^1-(6-bromoquinolin-4-yl)-N^3-methylbenzene-1,3-diamine]",0.24,–,"selectivity index window (CC50/EC50, DENV, Huh7) (DENV2): 22 fold; EC90 (DENV2; [4]): 0.69 µM; reduction in potency against VEEV relative to DENV (VEEV (TC-83)): 4-8 fold; EC50 (VEEV (TC-83); [5]): 1.03 µM; EC90 (VEEV (TC-83); [5]): 10.7 µM; EC50 (VEEV (TC-83)): 1 µM; EC90 (VEEV (TC-83)): > 10 µM; CC50 (in vitro [3]): > 10 µM"
CN(C)c1cccc(Nc2ccnc3ccc(Br)cc23)c1 [Compound 22],> 10,> 10,–
OCc1cccc(Nc2ccnc3ccc(Br)cc23)c1 [Compound 23],3.7,> 10,–
OCc1ccccc1Nc1ccnc2ccc(Br)cc12 [Compound 24],7.1,> 10,–
FS(F)(F)(F)(F)c1cccc(Nc2ccnc3ccc(Br)cc23)c1 [Compound 25],1.5,> 10,–
CC(C)(C)Oc1cccc(Nc2ccnc3ccc(Br)cc23)c1 [Compound 26],2.3,9.2,–
CC(C)(C)c1cccc(Nc2ccnc3ccc(Br)cc23)c1 [Compound 27],0.94,6,–
Brc1ccc2nccc(Nc3ccc4c(c3)OCO4)c2c1 [Compound 28],1.7,8.6,–
Brc1ccc2nccc(Nc3ccc4c(c3)COC4)c2c1 [Compound 29],> 10,> 10,–
Brc1ccc2nccc(Nc3cccc4c3OCO4)c2c1 [Compound 30],> 10,> 10,–
Brc1ccc2nccc(Nc3cccc4c3COC4)c2c1 [Compound 31],> 10,> 10,–
Fc1ccc2c(c1Nc1ccnc3ccc(Br)cc13)OCO2 [Compound 32],1.9,–,CC50 at 48 h (in vitro [1]): > 10 µM
COc1cccc(Nc2ccnc3ccc(Br)cc23)c1OC [Compound 33],7.8,–,CC50 at 48 h (in vitro [1]): > 10 µM
FC1(F)Oc2cccc(Nc3ccnc4ccc(Br)cc34)c2O1 [Compound 34],7.1,> 10,–
Brc1ccc2nccc(Nc3cccc4c3CCO4)c2c1 [Compound 35],0.95,> 10,–
Brc1ccc2nccc(Nc3cccc4c3OCC4)c2c1 [Compound 36],5.7,–,CC50 at 48 h (in vitro [1]): > 10 µM
Brc1ccc2nccc(Nc3cccc4cnoc34)c2c1 [Compound 39],> 10,–,CC50 at 48 h (in vitro [1]): > 10 µM
Brc1ccc2nccc(Nc3cccc4oncc34)c2c1 [Compound 40],> 10,–,CC50 at 48 h (in vitro [1]): > 10 µM

Structure (SMILES),EC50 (DENV2; [4]) [µM],CC50 (in vitro [1]) [µM],further results
Brc1ccc2nccc(Nc3cccc4ncoc34)c2c1 [Compound 41],3.2,> 10,–
Brc1ccc2nccc(Nc3cccc4scnc34)c2c1 [Compound 42],> 10,> 10,–
Brc1ccc2nccc(Nc3cccc4sccc34)c2c1 [Compound 43],2.9,> 10,–
Brc1ccc2nccc(Nc3cccc4nonc34)c2c1 [Compound 44],9.2,–,CC50 at 48 h (in vitro [1]): > 10 µM
Brc1ccc2nccc(Nc3cccc4nsnc34)c2c1 [Compound 45],5.8,–,CC50 at 48 h (in vitro [1]): > 10 µM
Cn1nnc2c(Nc3ccnc4ccc(Br)cc34)cccc21 [Compound 46],~5,–,EC50 (DENV2): 5.5 µM; CC50 at 48 h (in vitro [1]): > 10 µM
Cn1ncc2c(Nc3ccnc4ccc(Br)cc34)cccc21 [Compound 47],~5,–,EC50 (DENV2): 5.4 µM; CC50 at 48 h (in vitro [1]): > 10 µM
Brc1ccc2nccc(Nc3cccc4[nH]ncc34)c2c1 [Compound 48],2.1,–,CC50 at 48 h (in vitro [1]): > 10 µM
Brc1ccc2nccc(Nc3ccc4cn[nH]c4c3)c2c1 [Compound 49],1.8,> 10,–
"Fc1cc2cn[nH]c2cc1Nc1ccnc2ccc(Br)cc12 [Compound 50, 6-bromo-N-(5-fluoro-1H-indazol-6-yl)quinolin-4-amine]",0.69,> 10,EC90 (DENV2; [4]): 3.98 µM; EC90 (DENV2): 4 µM; reduction in potency against VEEV relative to DENV (VEEV (TC-83)): 4-8 fold; EC50 (VEEV (TC-83); [5]): 2.3 µM; EC90 (VEEV (TC-83); [5]): 9.6 µM; CC50 (in vitro [2]): > 10 µM; CC50 (in vitro [3]): > 10 µM
Brc1ccc2nccc(Nc3ccc4[nH]ncc4c3)c2c1 [Compound 51],1.2,–,CC50 at 48 h (in vitro [1]): > 10 µM
"O=C1NCc2ccc(Nc3ccnc4ccc(Br)cc34)cc21 [Compound 52, 6-((6-bromoquinolin-4-yl)amino)isoindolin-1-one]",0.64,–,EC90 (DENV2; [4]): 1.51 µM; EC90 (DENV2): 1.5 µM; reduction in potency against VEEV relative to DENV (VEEV (TC-83)): 4-8 fold; EC50 (VEEV (TC-83); [5]): 3.6 µM; EC90 (VEEV (TC-83); [5]): > 10 µM; CC50 at 48 h (in vitro [1]): > 10 µM; CC50 (in vitro [2]): > 10 µM; CC50 (in vitro [3]): > 10 µM
O=c1[nH]c2ccc(Nc3ccnc4ccc(Br)cc34)cc2[nH]1 [Compound 53],> 10,–,CC50 at 48 h (in vitro [1]): > 10 µM
O=c1[nH]c2cc(Nc3ccnc4ccc(Br)cc34)ccc2o1 [Compound 54],> 10,> 10,–
Cn1c(=O)[nH]c2cc(Nc3ccnc4ccc(Br)cc34)ccc21 [Compound 55],7.1,–,CC50 at 48 h (in vitro [1]): > 10 µM
O=S1(=O)Cc2ccc(Nc3ccnc4ccc(Br)cc34)cc2C1 [Compound 56],6.3,–,CC50 at 48 h (in vitro [1]): > 10 µM
"C#Cc1cccc(Nc2ncnc3cc(OCCOC)c(OCCOC)cc23)c1 [Erlotinib, erlotinib]",–,–,EC50 (DENV): 6.5 µM
"CCN(CC)CCNC(=O)c1c(C)[nH]c(/C=C2\C(=O)Nc3ccc(F)cc32)c1C [Sunitinib, sunitinib, reference compound]",1.1,> 10,EC90 (DENV2; [4]): > 10 µM; EC50 (VEEV (TC-83); [5]): 4.4 µM; EC90 (VEEV (TC-83); [5]): > 10 µM; CC50 (in vitro [2]): > 10 µM; CC50 (in vitro [3]): > 10 µM
